Here are results for eight compounds from ChEMBL document CHEMBL1201862, “PubChem BioAssay data set” (2004).

Assay in all cases: inhibition of tumour cell growth, NCI panel, 48 h
Experiment [1] deals with CAKI-1.
In experiment [2] the test system is CCRF-CEM.
In experiment [3] the test system is MOLT-4.
Experiment [4] has as its system RPMI-8226.
For experiment [5], the system named is IGROV-1.
Experiment [6] has as its system HCT-116.
The subject of experiment [7] is HCT-15.
For experiment [8], the system named is U-251.
The test system of experiment [9] is BT-549.
In experiment [10] the test system is RXF 393.
For experiment [11], the system named is Malme-3M.
Experiment [12] relates to UACC-62.
In experiment [13] the test system is K562.
Experiment [14] relates to NCI-H23.
Experiment [15] deals with 786-0.
Experiment [16] deals with OVCAR-4.
In experiment [17] the test system is DU-145.
The subject of experiment [18] is LOX IMVI.
Experiment [19] has as its system SR.
Experiment [20] has as its system SF-539.

Where a name gives a salt, the structure may show the parent alone.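 Assay format: 96-well plates, 48-hour exposure. GI50 = concentration required for 50% inhibition of growth.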 Calls of active or inactive are those of the source. No stated cut-off is given here; in the data, active = GI50 up to about 1.1 µM and inactive = higher.

For the compound `CC(=O)C(=N\Nc1ccc(Cl)cc1)/C(C)=N/c1ccc(C)cc1`, the GI50 in experiment [1] was 49.3 µM (inactive); in experiment [2], 11.2 µM (inactive); in [3] it was 16.7 µM (inactive); in [4] it was 18.7 µM (inactive); in experiment [5] it was 32.7 µM (inactive); in experiment [6], 36.8 µM (inactive). Besides, the GI50 was 45.6 µM in experiment [7]; 31.6 µM (inactive) in [8]; 51.4 µM (inactive) in [9]; 23 µM (inactive) in [10]; 20.7 µM (inactive) in experiment [11]; 49.1 µM (inactive) in experiment [12]. Further, the GI50 is 33 µM (inactive) in experiment [13]; 38.1 µM (inactive) in experiment [14]; 37.2 µM (inactive) in experiment [15]; > 100 µM (inactive) in [16]; 30.8 µM (inactive) in experiment [17]; 45 µM (inactive) in [18]. Besides, the GI50 in experiment [19] was > 100 µM (inactive).

For `NCCN1C(=O)c2ccccc2C1(O)c1ccc(Cl)cc1` (stereo not drawn), the GI50 in experiment [1] is 24.5 µM (inactive); in experiment [2], 25.4 µM (inactive); in experiment [3], 17.3 µM (inactive); in experiment [4] it was 17.3 µM (inactive); in [5], 19 µM (inactive); in [6], 17.8 µM (inactive). For the same compound, the GI50 in experiment [7] is 37.3 µM; in experiment [8] it was 16.1 µM (inactive); in experiment [20], 21.6 µM (inactive); in experiment [9] it was 42.6 µM (inactive); in experiment [10], 17.3 µM (inactive); in experiment [11], 14.1 µM (inactive). Besides, the GI50 in experiment [12] is 16.4 µM (inactive); in experiment [13], 19.7 µM (inactive); in experiment [14], 36.8 µM (inactive); in experiment [15] it was 17.2 µM (inactive); in [16], 28.5 µM (inactive); in experiment [17], 33.9 µM (inactive). Further, the GI50 in experiment [18] is 16.6 µM (inactive); in [19] it was 17.9 µM (inactive).

`c1cc2nsnc2c2c[nH]cc12`: the GI50 in experiment [1] was > 100 µM (inactive); in [2], > 100 µM (inactive); in experiment [3] it was 85.3 µM (inactive); in experiment [4], > 100 µM (inactive); in experiment [5] it was 43.7 µM (inactive); in [6] it was > 100 µM (inactive). Also, the GI50 in experiment [7] is 99.5 µM; in experiment [20] it was > 100 µM (inactive); in experiment [9], 49.7 µM (inactive); in experiment [10] it was 52.7 µM (inactive); in experiment [11] it was > 100 µM (inactive); in experiment [12], 42.9 µM (inactive). Also, the GI50 in experiment [13] is 49.1 µM (inactive); in experiment [14], > 100 µM (inactive); in experiment [15], > 100 µM (inactive); in experiment [16], > 100 µM (inactive); in experiment [17] it was > 100 µM (inactive); in experiment [18] it was > 100 µM (inactive). Moreover, the GI50 in experiment [19] is 96.6 µM (inactive).

On to `CCOC(=O)Cn1c(=O)c2cc(-c3ccccc3)cc3c(Cl)nc4c(OC)c(OC)cc1c4c32`, for which the GI50 in experiment [1] was 27.2 µM (inactive); in experiment [2], 5.16 µM (inactive); in [3], 3.1 µM (inactive); in [4], 4.91 µM (inactive); in [5], 13 µM (inactive); in experiment [6], 13.9 µM (inactive). Besides, the GI50 in experiment [7] is 15 µM; in experiment [8], 31.2 µM (inactive); in experiment [20], 87.5 µM (inactive); in experiment [9] it was 18.5 µM (inactive); in [10] it was 14.8 µM (inactive); in experiment [11], 0.578 µM (active). Also, the GI50 in experiment [12] is 14.8 µM (inactive); in [13] it was 13.8 µM (inactive); in [14] it was 15.3 µM (inactive); in experiment [15] it was 14.8 µM (inactive); in experiment [16] it was 21.6 µM (inactive); in experiment [17] it was 21.4 µM (inactive). The values for the GI50 in [18] and in experiment [19] were 11.6 µM (inactive) and 1.99 µM (inactive), respectively.

With `O=C1c2c[nH]nc2C(c2ccccc2)N1c1ccccc1` (stereo not drawn), the GI50 in experiment [1], in experiment [2], in experiment [3], in experiment [4], in experiment [5] and in experiment [6] was > 10 µM (inactive) in each case. Moreover, the GI50 in experiment [7] is over 10 µM; in [8] it was > 10 µM (inactive); in experiment [20], > 10 µM (inactive); in experiment [9], > 10 µM (inactive); in experiment [10], > 10 µM (inactive); in experiment [11], > 10 µM (inactive). The GI50 in [12], in [14], in experiment [15], in experiment [16], in experiment [17] and in experiment [18] was > 10 µM (inactive) in each case. The GI50 in [19] is > 10 µM (inactive).

As for `Oc1ccc(C(O)C2CCCCN2)cc1O` (stereo not drawn) [RIMITEROL HYDROBROMIDE], the GI50 in [1] is > 100 µM (inactive); in experiment [4], 54.7 µM (inactive); in [5] it was > 100 µM (inactive); in experiment [6], > 100 µM (inactive); in [7], over 100 µM; in [8] it was > 100 µM (inactive). Moreover, the GI50 in experiment [20], in experiment [9], in experiment [10], in experiment [11], in experiment [12] and in [13] was > 100 µM (inactive) in each case. In addition, the GI50 was > 100 µM (inactive) in [14]; 18.9 µM (inactive) in [15]; > 100 µM (inactive) in experiment [16]; > 100 µM (inactive) in experiment [17]; 28.4 µM (inactive) in experiment [18]; 71 µM (inactive) in experiment [19].

Turning to `Cc1cc(-c2nc3cc(F)ccc3s2)ccc1NC(=O)[C@@H](N)CCCCN`, the GI50 was 0.647 µM (active) in experiment [1]; 1.3 µM (inactive) in experiment [3]; 2.09 µM (inactive) in experiment [4]; < 0.0131 µM (active) in experiment [5]; 2 µM (inactive) in experiment [6]; 4.33 µM in experiment [7]. Besides, the GI50 was 1.88 µM (inactive) in [8]; 4.99 µM (inactive) in [20]; 12.9 µM (inactive) in experiment [9]; 7.26 µM (inactive) in experiment [10]; 17.4 µM (inactive) in experiment [11]; 9.55 µM (inactive) in [12]. The GI50 is 2.17 µM (inactive) in [13]; 1.48 µM (inactive) in experiment [14]; 2.69 µM (inactive) in [15]; 2.12 µM (inactive) in experiment [16]; 13.9 µM (inactive) in experiment [17]; 1.82 µM (inactive) in experiment [18]. The GI50 in experiment [19] was 0.802 µM (active).

As for `C=C1c2[nH]c3ccccc3c2C2C(CC)C1CCN2C` (stereo not drawn), the GI50 is > 100 µM (inactive) in [1]; 54.6 µM (inactive) in experiment [2]; 27.2 µM (inactive) in [3]; 32.5 µM (inactive) in experiment [4]; 15.2 µM (inactive) in experiment [5]; 51.2 µM (inactive) in experiment [6]. Moreover, the GI50 in experiment [7] was 90.8 µM; in [8] it was 79.3 µM (inactive); in experiment [20], 92 µM (inactive); in experiment [9], > 100 µM (inactive); in [10], > 100 µM (inactive); in experiment [11], 24.3 µM (inactive). For the same compound, the GI50 in experiment [12] is 48.4 µM (inactive); in experiment [14] it was > 100 µM (inactive); in experiment [15] it was > 100 µM (inactive); in experiment [16] it was 53.6 µM (inactive); in experiment [17], > 100 µM (inactive); in experiment [18] it was 49.7 µM (inactive). The GI50 in experiment [19] is 34.8 µM (inactive).
